Measurements as given in patent US20080051466A1, “Isoalpha acid based protein kinase modulation cancer treatment” (Metaproteomics, LLC, priority 2006, published 2008).
Marks after values point to notes of the source that are not given here.

Legend:
[1] = tested on: A549 pulmonary epithelial cells; assay: PGE2 biosynthesis in A549 cells stimulated by mite dust allergen; type: cell-based, human; conditions: 10 μg/ml, mite dust allergen 1000 ng/ml, 18 h
Procedure: The filtrate was termed mite dust allergen and used to test for induction of PGE2 biosynthesis in A549 pulmonary epithelial cells.
Mite allergen was added to the culture medium to achieve a final concentration of 1000 ng/ml. Eighteen hours later, the media were sampled for PGE2 determination.

[2] = tested on: LPS/3T3-L1 adipocytes; assay: IL-6 secretion in LPS/3T3-L1 adipocytes; type: cell-based, murine; conditions: 100 ng LPS/ml, D5 3T3-L1
[3] = tested on: LPS/3T3-L1 adipocytes; assay: Adiponectin secretion in LPS/3T3-L1 adipocytes; type: cell-based, murine; conditions: 100 ng/ml LPS; for induction of adiponectin secretion: any of the doses tested
[4] = tested on: TNFα-treated 3T3-L1 adipocytes; assay: Adiponectin secretion from TNFα-treated 3T3-L1 adipocytes; type: cell-based, murine; conditions: for increase of adiponectin secretion in the presence of TNFα: optimal concentration; for Concentration of maximum adiponectin secretion: over four doses
Procedure: 3T3-L1 cells were seeded at an initial density of 1×10^4 cells/cm^2 in 96-well plates. For two days, the cells were allowed grow to reach confluence. Following confluence, the cells were forced to differentiate into adipocytes by the addition of differentiation medium; this medium consisted of (1) 10% FBS/DMEM (high glucose); (2) 0.5 mM methylisobutylxanthine; (3) 0.5 μM dexamethasone and (4) 10 μg/ml insulin (MDI medium). From Day 3 through Day 5, the medium was changed to post-differentiation medium consisting of 10% FBS in DMEM. […] On Day 6, the supernatant medium was sampled for adiponectin determination.
(§1) Adiponectin Assay—The adiponectin secreted into the medium was quantified using the Mouse Adiponectin Quantikine® Immunoassay kit with no modifications (R&D Systems, Minneapolis, Minn.).

[5] = tested on: NF-kBp65; assay: NF-kBp65 nuclear translocation in TNFα-treated 3T3-L1 adipocytes; type: cell-based, murine; conditions: 2.5 and 5.0 μg/ml, three or 24 hours following TNFα
Procedure: Cell Culture and Treatment—Following differentiation 3T3-L1 adipocytes were maintained in post-differentiation medium for an additional 40 days. […] Hops derivatives and the positive control pioglitazone were tested at concentrations of 2.5, and 5.0 μg/ml. Test materials were added 1 hour prior to and nuclear extracts were prepared three and 24 hours following treatment with TNFα.
ELISA-3T3-L1 adipocytes were maintained in growth media for 40 days following differentiation. Nuclear NF-kBp65 was determined using the TransAM™ NF-kB kit from Active Motif (Carlsbad, Calif.) was used with no modifications. Jurkat nuclear extracts provided in the kit were derived from cells cultured in medium supplemented with 50 ng/ml TPA (phorbol, 12-myristate, 13 acetate) and 0.5 μM calcium ionophore A23187 for two hours at 37° C. immediately prior to harvesting.
Protein assay—Nuclear protein was quantified using the Active Motif Fluorescent Protein Quantification Kit.

[6] = tested on: insulin-resistant 3T3-L1 adipocytes; assay: Adiponectin secretion from insulin-resistant 3T3-L1 adipocytes; type: cell-based, murine; conditions: 50.0 μg/ml
Procedure: 3T3-L1 cells were seeded at an initial density of 1×10^4 cells/cm^2 in 96-well plates. For two days, the cells were allowed grow to reach confluence. Following confluence, the cells were forced to differentiate into adipocytes by the addition of differentiation medium; this medium consisted of (1) 10% FBS/DMEM (high glucose); (2) 0.5 mM methylisobutylxanthine; (3) 0.5 μM dexamethasone and (4) 10 μg/ml insulin (MDI medium). From Day 3 through Day 5, the medium was changed to post-differentiation medium consisting of 10 μg/ml insulin in 10% FBS/DMEM.
Briefly, on Day 6, cells were maintained in serum-free media containing 0.5% bovine serum albumin (BSA) for three hours and then treated with 1 μg insulin/ml plus solvent or insulin plus test material. […] Twenty-four hours later, the supernatant medium was sampled for adiponectin determination.
as §1
Substituting {relative adiponectin secretion/[concentration])} for the independent variable v/[S] and {relative adiponectin secretion} for the dependant variable {v}, produced a relationship of the form y=mx+b. […]

Compound: Beta acids
- Percent PGE2 Inhibition [1]: 83%

Compound: O=C(O)c1ccccc1O [salicylic acid]
- IL-6 Index at maximum inhibition ([2]; 50.0 μg/ml (dose of maximum inhibition)): 0.52*
- induction of adiponectin secretion [3]: failed to induce adiponectin secretion

Compound: CCc1ccc(CCOc2ccc(CC3SC(=O)NC3=O)cc2)nc1 (stereo not drawn) [Pioglitazone, pioglitazone]
- increase of adiponectin secretion in the presence of TNFα ([4]; 10 ng TNFα/ml): 80%
- Adiponectin Index (relative maximum adiponectin secretion) ([4]; 10 ng TNFα/ml, [Adiponectin]Test/[Adiponectin]TNFα control): 1.47
- Adiponectin Index Observed ([4]; 1.0 μg/ml, TNFα/3T3-L1, curcumin/XN combinations, indexed to TNFα control): 1.80
- IL-6 Index at maximum inhibition ([2]; 5.00 μg/ml (dose of maximum inhibition)): 0.37*
- inhibition of the amount of nuclear NF-kBp65 [5]: did not inhibit

Compound: CC(C)CCC1=C(O)C(C(=O)C(C)C)=C(O)C(CCC(C)C)(CCC(C)C)C1=O [Hexahydrocolupulone (HHCL)]
- Adiponectin/IL-6 [6]: 0.60#

Compound: CC(=O)Oc1ccccc1C(=O)O [Aspirin, aspirin]
- induction of adiponectin secretion [3]: failed to induce adiponectin secretion

Compound: COc1ccc2c(c1)c(CC(=O)O)c(C)n2C(=O)c1ccc(Cl)cc1 [Indomethacin, indomethacin]
- increase of adiponectin secretion in the presence of TNFα ([4]; 10 ng TNFα/ml): 94%
- Concentration of maximum adiponectin secretion ([4]; 10 ng TNFα/ml): 5.0 µg/mL
- Concentration of maximum adiponectin secretion ([4]; 10 ng TNFα/ml, listed as indomethacin): 2.5 µg/mL
- Maximum inhibition of IL-6 secretion, % Inhibition ([2]; 5.00 μg/ml): 53* %
- maximum adiponectin stimulation ([3]; […]): 9%
